# Source: US20260335278A1, “PHYTOCHEMICAL FORMULATIONS FOR TREATING STRESS AND ANXIETY” (GBS GLOBAL BIOPHARMA, INC., priority 2022, published 2026)
# Entries after “also recorded” stand apart in the source; their conditions may differ.
# How the values were obtained:
# zebrafish larvae [1] = test: Zebrafish models of stress and anxiety, overall verdict (Light/Dark Stress Response and thigmotaxis); format: in vivo; conditions: for Anti-Anxiety Potential?: API used singly
# Protocol: (§1) The validation process for the phytochemicals derived from Piper methysticum, other Piper plant family members, and non-Piper medicinal plants and fungi includes testing the selected phytochemical drug candidates as singles, doubles, and triples in two complementary zebrafish models of stress and anxiety. These two complementary assays are the Light/Dark Stress Response test that is illustrated in FIG. 5 (after the 90 min study of the effect of the compounds and mixtures on Baseline Activity) and the Thigmotaxis assay, as illustrated in FIG. 61A and FIG. 61B, which is also known as the wall flower effect, like the social anxiety of humans. Zebrafish larvae show a clear and distinct pattern of swimming in response to rapidly alternating light and dark conditions in the Light/Dark Response testing, which trigger a flight or fight response and darting behavior indicative of great stress and anxiety. The Light/Dark testing uses a control group to automatically track, using an automatic tracking device, the larval behavior in response to dark to light conditions. The thigmotaxis assay also uses automatic tracking and appropriate controls. In multiple embodiments additional Zebrafish larvae are given various concentrations of the selected phytochemicals from Table 1 for tracking Light/Dark Responses or Thigmotactic behavioral changes in the treated zebrafish larvae. Table 2A and Table 2B summarize the results from both assays when the individual phytochemicals are exposed to the: Baseline Activity (90 minutes in the light), Light/Dark Stress Response (5 min alternating pulses of dark and light for 30 min.), and Thigmotaxis Activity (% of time in the light center of the chamber (anxiety inducing) versus % of time near the dark (soothing) wall).
# Additionally, testing is done with mixtures of these same selected phytochemicals from P. methysticum and other plants selected by our in silico analyses. The testing results are analyzed using artificial intelligence systems to rank effectiveness in reducing the Light/Dark response and thigmotactic behavior for the
# The A1 enabled drug discovery platform database search data was evaluated to select the best drug candidates from: A Piper methysticum, B. within the Piper plant family (>200 Piper spp.), or C. traditional medicines to begin testing […] (API) singles, doubles, and triples in two complementary zebrafish models of anxiety light/dark startle response testing and thigmotaxis assays.
# (§2) The present invention includes a process to discover new pharmaceutical medicines for the treatment of stress, anxiety and anxiety-related disorders in a human. The preclinical testing included the effects of these 14 individual phytochemicals and 300 ratio-controlled mixtures of these phytochemicals in assays measuring the behavioral stress response patterns of zebrafish larvae. Larval behavior is assessed with at least one functional assay of stress or anxiety following acute exposure to each phytochemical sample formulated. Stereotypical basal activity patterns of zebrafish will be assessed to determine the potential side effects of the phytochemical samples in a concentration dependent manner for each compound on two zebrafish models of stress and anxiety: 1) the Light/Dark Stress Response (5 min alternating pulses of light and dark) in small to med well plates (96-48 well plates), and 2) Thigmotaxis assays in large well plates with 50% of the swimming surface colored dark around the margins of the well in large (24-12 well plates) will be assessed for their efficacy in testing the phytochemicals.
# The discovery methods of the present invention include testing the effects of up to 20 phytochemicals and 40 mixtures of the phytochemicals on behavioral stress response patterns of zebrafish larvae. Larval behavior was assessed with an automated video tracking system following acute exposure to each phytochemical sample. […]
# zebrafish larvae [2] = test: Light/Dark Stress Response (5 min alternating pulses of dark and light for 30 min); format: in vivo; design: key to Light/Dark Stress Response: +: statistically significant increase; −−: statistically significant decrease
# Protocol: as §1, §2
# (§3) The discovery methods of the present invention include testing the effects of up to 20 phytochemicals and 40 mixtures of the phytochemicals on behavioral stress response patterns of zebrafish larvae. Larval behavior was assessed with an automated video tracking system following acute exposure to each phytochemical sample. Stereotypical basal activity patterns of larvae were assessed to determine the concentration dependent effect of each compound. A zebrafish model of thigmotaxis in large well plates (24-12 well plates) was assessed for their efficacy in testing the phytochemicals. In the discovery method, fertilized eggs were kept on a re-circulating system in baskets until use at 120 hpf (5 days). At 120 hpf, larvae were loaded into 48 well plates in buffered fish media and acclimated to the plate in a heated light incubator for 2 hours. Larvae were acutely exposed with drug or controls at a 10× concentration and the plate was quickly transferred to a behavioral tracking system. Acute behavioral run was 90 minutes (baseline activity) in the light followed by alternating 5 minute bins (total 2 hours). […]
# zebrafish larvae [3] = test: Thigmotaxis assay; format: in vivo; design: key: +: statistically significant increase; −−: statistically significant decrease
# Protocol: as §1, §2, §3
# MAO-A = conditions: cited from earlier work
# MAO-B = conditions: cited from earlier work
# zebrafish larvae [4] = test: Baseline activity / baseline exposure (90 min continuous light), zebrafish larvae; format: in vivo; design: key to Baseline Exposure: +: statistically significant increase; −−: statistically significant decrease
# Protocol: as §1, §2, §3
# [5] = Pharmacokinetics of piperine acting alone; format: in vivo
pharmacokinetics [5],SMILES,Anti-Anxiety Potential? (zebrafish larvae [1]),Therapeutic Potential (zebrafish larvae [1]; vehicle 0.5% MeOH),Light/Dark Stress Response (5 min light/dark pulses) (zebrafish larvae [2]; vehicle 0.5% MeOH),Light/Dark Stress Response (5 min light/dark pulses) (zebrafish larvae [2]; vehicle 1% MeOH),Thigmotaxis Model (zebrafish larvae [3]; High),Thigmotaxis Model (zebrafish larvae [3]; Med),"Approx. Dose (cell or animal experiments), MAO-A (MAO-A)","Approx. Dose (cell or animal experiments), MAO-B (MAO-B)",Baseline Exposure (zebrafish larvae [4]; High),Baseline Exposure (zebrafish larvae [4]; Low),Baseline Exposure (zebrafish larvae [4]; Med),"baseline Activity (90 min light) (zebrafish larvae [4]; vehicle 0.5% MeOH, listed as Dihydromysticin)","baseline Activity (90 min light) (zebrafish larvae [4]; vehicle 1% MeOH, listed as Dihydromysticin)",Therapeutic Potential (zebrafish larvae [1]; vehicle 1% MeOH),baseline Activity (90 min light) (zebrafish larvae [4]; vehicle 0.5% MeOH),baseline Activity (90 min light) (zebrafish larvae [4]; vehicle 1% MeOH),Light/Dark Stress Response (zebrafish larvae [2]; High),Light/Dark Stress Response (zebrafish larvae [2]; Med),effect on the baseline activity (zebrafish larvae [4]; acting alone)
,COC1=CC(=O)O[C@@H](CCc2ccc3c(c2)OCO3)C1 [(+)-dihydro methysticin],Yes,Yes,stress response is reduced,"stress response is reduced, but evidence",−−,−−,"MAO-A 23.2 μM,",MAO-B 0.855 μM,−−,+,−−,baseline activity is close to controls; also recorded: (slight increase initially),baseline activity levels reduced; also recorded: (evidence of sedation),,,,,,
,"COC1=CC(=O)O[C@@H](CCc2ccccc2)C1 [(S)-(+)-7,8-dihydrokavain]",Yes,No,no reduction in stress response,"stress response trending down, but high",,,"MAO-A none,",MAO-B 8.23 μM,−−,+,−−,,,No,baseline activity is close to controls; also recorded: (slight increase initially),baseline activity levels reduced; also recorded: (evidence of sedation),,,
,COC1=CC(=O)O[C@@H](/C=C/c2ccc3c(c2)OCO3)C1 [R-(+)-methysticin],No,No,no reduction in stress response,"stress response is reduced, but high",,,"MAO-A 8.12 μM,",MAO-B 0.5 μM,−−,+,,,,"No, sedative effect",baseline activity levels reduced; also recorded: (evidence of sedation),baseline activity levels reduced; also recorded: (evidence of sedation),,,
,COc1cc(/C=C/C(=O)CC(=O)/C=C/c2ccc(O)c(OC)c2)ccc1O [curcumin],No,,,stress response reduced in highest,,,"MAOA 9.01 μM, MAOB",2.55 µM,+,,+,,,"No, sedative effect",,"baseline activity not like controls; also recorded: (increased at med/high; also recorded: conc., but baseline activity is concerning",−−,,
positive results,O=C(/C=C/C=C/c1ccc2c(c1)OCO2)N1CCCCC1 [piperine],Yes,,,stress response is reduced,−−,,,,+,−−,,,,YES-top pick,,,−−,−−,virtually no effect on the baseline activity
,COc1ccc(/C=C/c2cc(OC)cc(=O)o2)cc1 [yangonin],Yes,Yes,stress response is reduced,stress response is reduced,−−,−−,"MAO-A1.29 μM,",MAO-B 0.085 μM,+,+,+,,,Yes,baseline activity is close to controls; also recorded: (slight increase initially),baseline activity is close to controls; also recorded: (slight increase initially),−−,,
